Patent publication US9296785B2, “IL-13 receptor binding peptides” (Wake Forest University Health Sciences, priority 2009, dated 2016)

Key:
U-87 MG GBM cells = assay: Morphology of U-87 MG GBM cells after treatment; type: cell-based; details: over-expressor of IL-13Rα2, 1 to 20 μM or equimolar concentrations
Description: (§1) We have designed double-specificity therapeutic delivery systems, which not only specifically recognize cancer cells, but also enable intracellular distribution of anti-cancer agents to their respective sites of action, like the cytosol, mitochondria and/or nucleus. Some cationic peptides lyse negatively charged mitochondrial membranes of a eukaryotic cell, leading to initiation of caspase-3 dependent cell death. We have chosen one such peptide, (KLAKLAK)2 [SEQ ID NO:1, KK] to target the mitochondria of glioblastoma multiforme (GBM) brain tumor cells. To target GBM cells, we exploited interleukin 13 receptor alpha 2 (IL-13Rα2), an IL-13 plasma membrane receptor which is over-expressed in 75% of GBM patients. To enable intracytosolic delivery of the KK peptide mediated first by the IL-13Rα2, we use Pseudomonas exotoxin A (PE) domain II [D2] based delivery vector. D2 of PE is responsible for the processing and translocation of the internalized toxin and any other protein/agent fused to its C-terminal end from the endosome to the cytosol. Thus, we have generated single chain fusion proteins composed of IL-13, D2 and KK: IL-13.D2 and IL-13.D2.KK, respectively. These proteins were expressed in BL21 (λDE3) E. coli under the bacteriophage T7 promoter control and were further processed and purified by the FPLC system to >95% purity. […]

U-251 MG GBM cells = assay: Morphology of U-251 MG GBM cells after treatment; type: cell-based; details: over-expressor of IL-13Rα2, 1 to 20 μM or equimolar concentrations
Description: as §1

Substance: (KLAKLAK)2 (KLAKLAKKLAKLAK; Amphipathic antimicrobial peptide sequence) [KK peptide]
- effect on cell morphology (U-87 MG GBM cells): did not have any measurable effect
- effect on cell morphology (U-251 MG GBM cells): did not have any measurable effect
